Reference: ChEMBL document CHEMBL3822364, “Synthesis, characterization and antimicrobial activity of novel Schiff base tethered boronate esters of 1,2-O-isopropylidene-α-d-xylofuranose” (2016)
Converted amounts (≈) assume the structure as drawn.

Legend:
Aspergillus fumigatus [1] = assay: Antifungal activity against Aspergillus fumigatus MTCC 343 assessed as zone of inhibition at 100 ug/well measured after 48 hrs by agar well diffusion method; assay type: functional; conditions: MTCC 343, 48 h, read-out: DIZ
Candida albicans [2] = assay: Antifungal activity against Candida albicans MTCC 3017 assessed as zone of inhibition at 100 ug/well measured after 48 hrs by agar well diffusion method; assay type: functional; conditions: MTCC 3017, 48 h, read-out: DIZ
Staphylococcus aureus [3] = assay: Antibacterial activity against Staphylococcus aureus MTCC 3160 assessed as zone of inhibition at 100 ug/well measured after 24 hrs by agar well diffusion method; assay type: functional; conditions: MTCC 3160, 24 h, read-out: DIZ
Streptococcus mutans [4] = assay: Antibacterial activity against Streptococcus mutans MTCC 497 assessed as zone of inhibition at 100 ug/well measured after 24 hrs by agar well diffusion method; assay type: functional; conditions: MTCC 497, 24 h, read-out: DIZ
Candida albicans [5] = assay: Antifungal activity against Candida albicans MTCC 3017 measured after 48 hrs by NCCL protocol based broth dilution method; assay type: functional; conditions: MTCC 3017, 48 h
Klebsiella pneumoniae [6] = assay: Antibacterial activity against Klebsiella pneumoniae MTCC 3384 measured after 24 hrs by NCCL protocol based broth dilution method; assay type: functional; conditions: MTCC 3384, 24 h
Aspergillus fumigatus [7] = assay: Antifungal activity against Aspergillus fumigatus MTCC 343 measured after 48 hrs by NCCL protocol based broth dilution method; assay type: functional; conditions: MTCC 343, 48 h
Salmonella typhi [8] = assay: Antibacterial activity against Salmonella typhi measured after 24 hrs by NCCL protocol based broth dilution method; assay type: functional, Salmonella enterica subsp. enterica serovar Typhi; conditions: Salmonella enterica
Salmonella paratyphi [9] = assay: Antibacterial activity against Salmonella paratyphi assessed as zone of inhibition at 100 ug/well measured after 24 hrs by agar well diffusion method; assay type: functional, Salmonella enterica subsp. enterica serovar Paratyphi A; conditions: Salmonella enterica, read-out: DIZ
Micrococcus luteus [10] = assay: Antibacterial activity against Micrococcus luteus MTCC 106 assessed as zone of inhibition at 100 ug/well measured after 24 hrs by agar well diffusion method; assay type: functional; conditions: MTCC 106, 24 h, read-out: DIZ
Micrococcus luteus [11] = assay: Antibacterial activity against Micrococcus luteus MTCC 106 measured after 24 hrs by NCCL protocol based broth dilution method; assay type: functional; conditions: MTCC 106, 24 h
Salmonella typhi [12] = assay: Antibacterial activity against Salmonella typhi assessed as zone of inhibition at 100 ug/well measured after 24 hrs by agar well diffusion method; assay type: functional, Salmonella enterica subsp. enterica serovar Typhi; conditions: Salmonella enterica, read-out: DIZ
Streptococcus mutans [13] = assay: Antibacterial activity against Streptococcus mutans MTCC 497 measured after 24 hrs by NCCL protocol based broth dilution method; assay type: functional; conditions: MTCC 497, 24 h
Klebsiella pneumoniae [14] = assay: Antibacterial activity against Klebsiella pneumoniae MTCC 3384 assessed as zone of inhibition at 100 ug/well measured after 24 hrs by agar well diffusion method; assay type: functional; conditions: MTCC 3384, 24 h, read-out: DIZ
Salmonella paratyphi [15] = assay: Antibacterial activity against Salmonella paratyphi measured after 24 hrs by NCCL protocol based broth dilution method; assay type: functional, Salmonella enterica subsp. enterica serovar Paratyphi A; conditions: Salmonella enterica
Staphylococcus aureus [16] = assay: Antibacterial activity against Staphylococcus aureus MTCC 3160 measured after 24 hrs by NCCL protocol based broth dilution method; assay type: functional; conditions: MTCC 3160, 24 h

Structure (SMILES) | zone of inhibition at 100 µg/disc (Aspergillus fumigatus [1]) [mm] | zone of inhibition at 100 µg/disc (Candida albicans [2]) [mm] | zone of inhibition at 100 µg/disc (Staphylococcus aureus [3]) [mm] | zone of inhibition at 100 µg/disc (Streptococcus mutans [4]) [mm] | MIC (Candida albicans [5]) [µg/mL] | MIC (Klebsiella pneumoniae [6]) [µg/mL] | MIC (Aspergillus fumigatus [7]) [µg/mL] | MIC (Salmonella typhi [8]) [µg/mL] | zone of inhibition at 100 µg/disc (Salmonella paratyphi [9]) [mm] | zone of inhibition at 100 µg/disc (Micrococcus luteus [10]) [mm] | MIC (Micrococcus luteus [11]) [µg/mL] | zone of inhibition at 100 µg/disc (Salmonella typhi [12]) [mm] | MIC (Streptococcus mutans [13]) [µg/mL] | zone of inhibition at 100 µg/disc (Klebsiella pneumoniae [14]) [mm] | MIC (Salmonella paratyphi [15]) [µg/mL] | MIC (Staphylococcus aureus [16]) [µg/mL]
Cc1ccc(/N=C/c2cccc(B(O)O)c2)cc1 | 0 | 0 | 8 | 9 | 500 (≈ 2090 µM) | 500 (≈ 2090 µM) | 500 (≈ 2090 µM) | 500 (≈ 2090 µM) | 0 | 0 | 500 (≈ 2090 µM) | 8 | 250 (≈ 1050 µM) | 0 | 500 (≈ 2090 µM) | 500 (≈ 2090 µM)
O=[N+]([O-])c1ccc(O)c(/C=N/c2cccc(B(O)O)c2)c1 | 0 | 0 | 8 | 9 | 500 (≈ 1750 µM) | 500 (≈ 1750 µM) | 500 (≈ 1750 µM) | 500 (≈ 1750 µM) | 0 | 0 | 250 (≈ 874 µM) | 11 | 125 (≈ 437 µM) | 0 | 500 (≈ 1750 µM) | 500 (≈ 1750 µM)
CC1(C)O[C@H]2O[C@@H]3COB(c4cccc(/N=C/c5ccc(Br)cc5O)c4)O[C@@H]3[C@H]2O1 | 0 | 17 | 13 | 17 | 125 (≈ 264 µM) | 125 (≈ 264 µM) | 500 (≈ 1050 µM) | 31.2 (≈ 65.9 µM) | 14 | 21 | 62.5 (≈ 132 µM) | 24 | 125 (≈ 264 µM) | 12 | 250 (≈ 527 µM) | 250 (≈ 527 µM)
CC1(C)O[C@H]2O[C@@H]3COB(c4ccccc4C=O)O[C@@H]3[C@H]2O1 | 25 | 26 | 20 | 20 | 31.2 (≈ 103 µM) | 15.6 (≈ 51.4 µM) | 31.2 (≈ 103 µM) | 31.2 (≈ 103 µM) | 21 | 18 | 62.5 (≈ 206 µM) | 26 | 62.5 (≈ 206 µM) | 27 | 31.2 (≈ 103 µM) | 62.5 (≈ 206 µM)
CC1(C)O[C@H]2O[C@@H]3COB(c4cccc(C=O)c4)O[C@@H]3[C@H]2O1 | 0 | 11 | 15 | 22 | 250 (≈ 822 µM) | 62.5 (≈ 206 µM) | 500 (≈ 1640 µM) | 62.5 (≈ 206 µM) | 18 | 12 | 250 (≈ 822 µM) | 18 | 62.5 (≈ 206 µM) | 19 | 62.5 (≈ 206 µM) | 250 (≈ 822 µM)
CC1(C)O[C@H]2O[C@@H]3COB(c4cccc(/C=N/c5ccc(Cl)cc5)c4)O[C@@H]3[C@H]2O1 | 0 | 11 | 15 | 16 | 250 (≈ 604 µM) | 62.5 (≈ 151 µM) | 500 (≈ 1210 µM) | 31.2 (≈ 75.5 µM) | 13 | 17 | 125 (≈ 302 µM) | 25 | 125 (≈ 302 µM) | 22 | 250 (≈ 604 µM) | 250 (≈ 604 µM)
